Experiments:
[1] = solubility of dye in resin formulation; format: physicochemical; conditions: final resin formulation (oligomer, PC, DDFD)
Method: The C&D Green Dye #6 is added to the resin to increase the absorbance of the resin for higher resolution printing. […] To mix C&D Green Dye #6 into the resin, the dye is first solubilized in PC at 0.06 wt % at 80° C. The stock solution of 0.06 wt % dye in PC is added to the oligomer to achieve the desired 0.03% concentration in the final resin.
Crystals of the C&D Green Dye #6 may be observed in this resin. C&D Green Dye #6 tends to crystalize in the resin. To prevent crystal aggregation, this resin should be mixed fresh prior to printing.

[2] = versus BAPO; cited from earlier work

Cc1ccc(Nc2ccc(Nc3ccc(C)cc3)c3c2C(=O)c2ccccc2C3=O)cc1 [C&D Green Dye #6, 1,4-bis(p-tolylamino)anthraquinone]
solubility in the final formulation [1]: limited solubility

CC1(C)COC(=O)C1=O [DDFD, dihydro-4,4-dimethyl-2,3-furandione]
cytotoxicity relative to traditional UV photoinitiators such as BAPO [2]: orders of magnitude less cytotoxic

Source: patent US11952457B2, “Bioabsorbable resin for additive manufacturing with non-cytotoxic photoinitiator” (Carbon, Inc., priority 2021, dated 2024)
